Test results from patent US20160074291A1, “ANTI-AGING SKIN CARE COMPOSITIONS AND REGIMENS” (The Procter & Gamble Company, priority 2014, published 2016).

Experiments:
[1] = test system: skin barrier formation; assay: Eigengene analysis of younger-appearance genes, skin barrier; type: cell-based; settings: cultured human keratinocytes
[2] = test system: "Clear and Detox" module genes; assay: Eigengene analysis of "Clear and Detox" co-expression module; settings: FIG. 8
[3] = test system: "Repair and Rebuild" associated genes; assay: Eigengene analysis of "Repair and Rebuild" co-expression module; settings: 301 genes, FIG. 9

| Substance | effects relating to successful aging in skin barrier formation [1] | effect on "Clear and Detox" eigengene [2] | effect on "Repair and Rebuild" eigengene [3] |
| --- | --- | --- | --- |
| palmitoyl-lysine-threonine [Pal-KT] | Effects relating to successful aging were also identified | significantly up-regulates |  |
| palmitoyl-lysine-threonine-threonine-lysine-serine [Pal-KTTKS] |  |  | significantly up-regulate |
